From US20260116920A1, “HUMAN TRANSFERRIN RECEPTOR BINDING PEPTIDE” (PEPTIDREAM INC., priority 2021, published 2026)
Positions of bridges follow the written chain, without caps; N, C: chain ends. Non-standard residues stand in square brackets, D forms with d. Residues, ends and D or L forms follow the SMILES beside them. *: point of attachment. Trp(1-CH2COOH) = N[C@@H](Cc1cn(CC(=O)O)c2ccccc12)C(=O)O; NMePhe(3-Cl) = CN[C@@H](Cc1cccc(Cl)c1)C(=O)O; 3Pal(6-NH2) = Nc1ccc(C[C@H](N)C(=O)O)cn1; Lys(N3) = [N-]=[N+]=NCCCC[C@H](N)C(=O)O; NMeY = CN[C@@H](Cc1ccc(O)cc1)C(=O)O; 3Pal = N[C@@H](Cc1cccnc1)C(=O)O; 4Pal = N[C@@H](Cc1ccncc1)C(=O)O; Carboxymethyl = O=C(O)C*

Biological target: T1, human transferrin receptor (hTfR) (Homo sapiens, UniProt P02786)
T1 construct: made in house
T1 sequence (P02786 89-760 limits assumed): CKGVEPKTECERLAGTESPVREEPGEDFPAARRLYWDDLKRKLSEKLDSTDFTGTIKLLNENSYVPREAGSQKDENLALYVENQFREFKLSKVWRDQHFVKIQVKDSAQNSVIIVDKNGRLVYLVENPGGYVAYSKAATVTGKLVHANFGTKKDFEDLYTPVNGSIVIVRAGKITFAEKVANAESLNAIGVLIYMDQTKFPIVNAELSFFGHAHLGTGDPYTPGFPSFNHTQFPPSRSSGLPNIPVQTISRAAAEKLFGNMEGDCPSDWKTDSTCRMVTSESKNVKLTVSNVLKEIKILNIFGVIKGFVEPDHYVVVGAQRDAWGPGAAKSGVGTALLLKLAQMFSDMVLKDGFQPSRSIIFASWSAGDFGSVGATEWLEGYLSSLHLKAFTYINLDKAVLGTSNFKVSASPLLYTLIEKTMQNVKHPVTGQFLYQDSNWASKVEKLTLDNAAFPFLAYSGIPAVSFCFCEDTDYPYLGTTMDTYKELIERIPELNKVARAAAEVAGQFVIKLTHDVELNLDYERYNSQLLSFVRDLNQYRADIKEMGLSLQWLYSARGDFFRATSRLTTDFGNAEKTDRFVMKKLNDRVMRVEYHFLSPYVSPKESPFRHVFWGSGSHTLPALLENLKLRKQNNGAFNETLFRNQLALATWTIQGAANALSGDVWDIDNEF
Assay: Evaluation of molecular interaction between transferrin receptor (hTfR) and peptide using surface plasmon resonance (SPR)
Format: binding
Conditions: KD class for binding to hTfR by SPR; peptide with the linker shown in the same line; 'low signal indicates no activity'; read-out: SPR
How it was run: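 SPR, single-cycle kinetics; hTfR dimer on NTA chip via Ni capture plus EDC/NHS coupling. Analyte peptide 100, 50, 25, 10, 5 nM. Running buffer: 10 mM HEPES pH 8.0, 150 mM NaCl, 0.05% Tween 20, 0.1% BSA, 1.0% DMSO. KD by least-squares fit.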

Structure (SMILES)	Kd
CC[C@H](C)[C@@H]1NC(=O)[C@H](Cc2ccc(OCC(=O)O)cc2)NC(=O)[C@H](Cc2ccc(O)cc2)NC(=O)[C@H](CC(N)=O)NC(=O)[C@H](Cc2cn(CC(=O)O)c3ccccc23)NC(=O)[C@H](C(C)C)NC(=O)[C@H](Cc2cccc(Cl)c2)N(C)C(=O)[C@H](C(C)C)NC(=O)[C@H](C)NC(=O)CSC[C@@H](C(=O)NCC(=O)N[C@@H](CCCCN=[N+]=[N-])C(N)=O)NC(=O)[C@H](Cc2ccc(O)cc2)N(C)C(=O)[C@H](Cc2ccccc2)NC(=O)[C@H](CCC(N)=O)NC(=O)[C@H](CCC(N)=O)NC(=O)[C@H]([C@@H](C)CC)NC1=O [894_3178] ({CH2CO}-AV[NMePhe(3-Cl)]V[Trp(1-CH2COOH)]NYY(Carboxymethyl)IIQQF[NMeY]CG[Lys(N3)]-NH2; thioether N-15)	1 to 100 nM
CC[C@H](C)[C@@H]1NC(=O)[C@H](Cc2cccnc2)NC(=O)[C@H](Cc2ccc(O)cc2)NC(=O)[C@H](CC(N)=O)NC(=O)[C@H](Cc2cn(CC(=O)O)c3ccccc23)NC(=O)[C@H](C(C)C)NC(=O)[C@H](Cc2cccc(Cl)c2)N(C)C(=O)[C@H](C(C)C)NC(=O)[C@H](C)NC(=O)CSC[C@@H](C(=O)NCC(=O)N[C@@H](CCCCN=[N+]=[N-])C(N)=O)NC(=O)[C@H](Cc2ccc(O)cc2)N(C)C(=O)[C@H](Cc2ccncc2)NC(=O)[C@H](CCCNC(=N)N)NC(=O)[C@H](CCCNC(=N)N)NC(=O)[C@H]([C@@H](C)CC)NC1=O [894_3185] ({CH2CO}-AV[NMePhe(3-Cl)]V[Trp(1-CH2COOH)]NY[3Pal]IIRR[4Pal][NMeY]CG[Lys(N3)]-NH2; thioether N-15)	1 to 100 nM
CC[C@H](C)[C@@H]1NC(=O)[C@H](Cc2ccc(OC)cc2)NC(=O)[C@H](Cc2ccc(N)nc2)NC(=O)[C@H](CC(N)=O)NC(=O)[C@H](Cc2cn(CC(=O)O)c3ccccc23)NC(=O)[C@H](C(C)C)NC(=O)[C@H](Cc2cccc(Cl)c2)N(C)C(=O)[C@H](C(C)C)NC(=O)[C@H](C)NC(=O)CSC[C@@H](C(=O)NCC(=O)N[C@@H](CCCCN=[N+]=[N-])C(N)=O)NC(=O)[C@H](Cc2ccc(O)cc2)N(C)C(=O)[C@H](Cc2ccncc2)NC(=O)[C@H](CCCNC(=N)N)NC(=O)[C@H](CCCNC(=N)N)NC(=O)[C@H]([C@@H](C)CC)NC1=O [894_3187]	1 to 100 nM
CC[C@H](C)[C@@H]1NC(=O)[C@H](Cc2cccnc2)NC(=O)[C@H](Cc2ccc(O)cc2)NC(=O)[C@H](CC(N)=O)NC(=O)[C@H](Cc2c[nH]c3ccccc23)NC(=O)[C@H](C(C)C)NC(=O)[C@H](Cc2cccc(Cl)c2)N(C)C(=O)[C@H](C(C)C)NC(=O)[C@H](C)NC(=O)CSC[C@@H](C(=O)NCC(=O)N[C@@H](CCCCN=[N+]=[N-])C(N)=O)NC(=O)[C@H](Cc2ccc(O)cc2)N(C)C(=O)[C@H](Cc2ccncc2)NC(=O)[C@H](CCCNC(=N)N)NC(=O)[C@H](CCCNC(=N)N)NC(=O)[C@H]([C@@H](C)CC)NC1=O [894_3188] ({CH2CO}-AV[NMePhe(3-Cl)]VWNY[3Pal]IIRR[4Pal][NMeY]CG[Lys(N3)]-NH2; thioether N-15)	1 to 100 nM
CC[C@H](C)[C@@H]1NC(=O)[C@H](Cc2cccnc2)NC(=O)[C@H](Cc2ccc(N)nc2)NC(=O)[C@H](CC(N)=O)NC(=O)[C@H](Cc2c[nH]c3ccccc23)NC(=O)[C@H](C(C)C)NC(=O)[C@H](Cc2cccc(Cl)c2)N(C)C(=O)[C@H](C(C)C)NC(=O)[C@H](C)NC(=O)CSC[C@@H](C(=O)NCC(=O)N[C@@H](CCCCN=[N+]=[N-])C(N)=O)NC(=O)[C@H](Cc2ccc(O)cc2)N(C)C(=O)[C@H](Cc2ccncc2)NC(=O)[C@H](CCCNC(=N)N)NC(=O)[C@H](CCCNC(=N)N)NC(=O)[C@H]([C@@H](C)CC)NC1=O [894_3189] ({CH2CO}-AV[NMePhe(3-Cl)]VWN[3Pal(6-NH2)][3Pal]IIRR[4Pal][NMeY]CG[Lys(N3)]-NH2; thioether N-15)	1 to 100 nM
CC[C@H](C)[C@@H]1NC(=O)[C@H](Cc2ccc(OC)cc2)NC(=O)[C@H](Cc2ccc(N)nc2)NC(=O)[C@H](CC(N)=O)NC(=O)[C@H](Cc2c[nH]c3ccccc23)NC(=O)[C@H](C(C)C)NC(=O)[C@H](Cc2cccc(Cl)c2)N(C)C(=O)[C@H](C(C)C)NC(=O)[C@H](C)NC(=O)CSC[C@@H](C(=O)NCC(=O)N[C@@H](CCCCN=[N+]=[N-])C(N)=O)NC(=O)[C@H](Cc2ccc(O)cc2)N(C)C(=O)[C@H](Cc2ccncc2)NC(=O)[C@H](CCCNC(=N)N)NC(=O)[C@H](CCCNC(=N)N)NC(=O)[C@H]([C@@H](C)CC)NC1=O [894_3190]	1 to 100 nM

Continued, values first:

Kd	Structure (SMILES)
1 to 100 nM	CC[C@H](C)[C@@H]1NC(=O)[C@H](Cc2ccc(OCC(=O)O)cc2)NC(=O)[C@H](Cc2ccc(O)cc2)NC(=O)[C@H](CC(N)=O)NC(=O)[C@H](Cc2cn(CC(=O)O)c3ccccc23)NC(=O)[C@H](C(C)C)NC(=O)[C@H](Cc2cccc(Cl)c2)N(C)C(=O)[C@H](C(C)C)NC(=O)[C@H](C)NC(=O)CSC[C@@H](C(=O)NCC(=O)N[C@@H](CCCCN=[N+]=[N-])C(N)=O)NC(=O)[C@H](Cc2ccc(O)cc2)N(C)C(=O)[C@H](Cc2ccccc2)NC(=O)[C@H](CCCNC(=N)N)NC(=O)[C@H](CCCNC(=N)N)NC(=O)[C@H]([C@@H](C)CC)NC1=O [894_3171]
1 to 100 nM	CC[C@H](C)[C@@H]1NC(=O)[C@H](Cc2ccc(OCC(=O)O)cc2)NC(=O)[C@H](Cc2ccc(O)cc2)NC(=O)[C@H](CC(N)=O)NC(=O)[C@H](Cc2cn(CC(=O)O)c3ccccc23)NC(=O)[C@H](C(C)C)NC(=O)[C@H](Cc2cccc(Cl)c2)N(C)C(=O)[C@H](C(C)C)NC(=O)[C@H](C)NC(=O)CSC[C@@H](C(=O)NCC(=O)N[C@@H](CCCCN=[N+]=[N-])C(N)=O)NC(=O)[C@H](Cc2ccc(O)cc2)N(C)C(=O)[C@H](Cc2ccccc2)NC(=O)[C@H](CCCNC(=N)N)NC(=O)[C@H](CCC(=O)NCCOCCOCCOCCOCCOCCOCCOCCOC)NC(=O)[C@H]([C@@H](C)CC)NC1=O [894_3172]
1 to 100 nM	CC[C@H](C)[C@@H]1NC(=O)[C@H](Cc2ccc(OCC(=O)O)cc2)NC(=O)[C@H](Cc2ccc(O)cc2)NC(=O)[C@H](CC(N)=O)NC(=O)[C@H](Cc2cn(CC(=O)O)c3ccccc23)NC(=O)[C@H](C(C)C)NC(=O)[C@H](Cc2cccc(Cl)c2)N(C)C(=O)[C@H](C(C)C)NC(=O)[C@H](C)NC(=O)CSC[C@@H](C(=O)NCC(=O)N[C@@H](CCCCN=[N+]=[N-])C(N)=O)NC(=O)[C@H](Cc2ccc(O)cc2)N(C)C(=O)[C@H](Cc2ccccc2)NC(=O)[C@H](CCC(=O)NCCOCCOCCOCCOCCOCCOCCOCCOC)NC(=O)[C@H](CCCNC(=N)N)NC(=O)[C@H]([C@@H](C)CC)NC1=O [894_3173]
1 to 100 nM	CC[C@H](C)[C@@H]1NC(=O)[C@H](Cc2ccc(OCC(=O)O)cc2)NC(=O)[C@H](Cc2ccc(O)cc2)NC(=O)[C@H](CC(N)=O)NC(=O)[C@H](Cc2cn(CC(=O)O)c3ccccc23)NC(=O)[C@H](C(C)C)NC(=O)[C@H](Cc2cccc(Cl)c2)N(C)C(=O)[C@H](C(C)C)NC(=O)[C@H](C)NC(=O)CSC[C@@H](C(=O)NCC(=O)N[C@@H](CCCCN=[N+]=[N-])C(N)=O)NC(=O)[C@H](Cc2ccc(O)cc2)N(C)C(=O)[C@H](Cc2ccccc2)NC(=O)[C@H](CCCNC(=N)N)NC(=O)[C@H](CCC(N)=O)NC(=O)[C@H]([C@@H](C)CC)NC1=O [894_3176]
1 to 100 nM	CC[C@H](C)[C@@H]1NC(=O)[C@H](Cc2ccc(OCC(=O)O)cc2)NC(=O)[C@H](Cc2ccc(O)cc2)NC(=O)[C@H](CC(N)=O)NC(=O)[C@H](Cc2cn(CC(=O)O)c3ccccc23)NC(=O)[C@H](C(C)C)NC(=O)[C@H](Cc2cccc(Cl)c2)N(C)C(=O)[C@H](C(C)C)NC(=O)[C@H](C)NC(=O)CSC[C@@H](C(=O)NCC(=O)N[C@@H](CCCCN=[N+]=[N-])C(N)=O)NC(=O)[C@H](Cc2ccc(O)cc2)N(C)C(=O)[C@H](Cc2ccccc2)NC(=O)[C@H](CCC(N)=O)NC(=O)[C@H](CCCNC(=N)N)NC(=O)[C@H]([C@@H](C)CC)NC1=O [894_3177]
1 to 100 nM	CC[C@H](C)[C@@H]1NC(=O)[C@H](Cc2cccnc2)NC(=O)[C@H](Cc2ccc(N)nc2)NC(=O)[C@H](CC(N)=O)NC(=O)[C@H](Cc2cn(CC(=O)O)c3ccccc23)NC(=O)[C@H](C(C)C)NC(=O)[C@H](Cc2cccc(Cl)c2)N(C)C(=O)[C@H](C(C)C)NC(=O)[C@H](C)NC(=O)CSC[C@@H](C(=O)NCC(=O)N[C@@H](CCCCN=[N+]=[N-])C(N)=O)NC(=O)[C@H](Cc2ccc(O)cc2)N(C)C(=O)[C@H](Cc2ccncc2)NC(=O)[C@H](CCCNC(=N)N)NC(=O)[C@H](CCCNC(=N)N)NC(=O)[C@H]([C@@H](C)CC)NC1=O [894_3186] ({CH2CO}-AV[NMePhe(3-Cl)]V[Trp(1-CH2COOH)]N[3Pal(6-NH2)][3Pal]IIRR[4Pal][NMeY]CG[Lys(N3)]-NH2; thioether N-15)
< 1 nM	CC[C@H](C)[C@@H]1NC(=O)[C@H](Cc2ccc(OCC(=O)O)cc2)NC(=O)[C@H](Cc2ccc(O)cc2)NC(=O)[C@H](CC(N)=O)NC(=O)[C@H](Cc2cn(CC(=O)O)c3ccccc23)NC(=O)[C@H](C(C)C)NC(=O)[C@H](Cc2cccc(Cl)c2)N(C)C(=O)[C@H](C(C)C)NC(=O)[C@H](C)NC(=O)CSC[C@@H](C(=O)NCC(=O)N[C@H](CCC(=O)O)C(=O)N[C@H](CCC(=O)O)C(=O)N[C@H](CCC(=O)O)C(=O)N[C@H](CO)C(=O)N[C@H](CO)C(=O)N[C@@H](CCCCNC(=O)OC[C@@H]2[C@@H]3CCC#CCC[C@@H]32)C(N)=O)NC(=O)[C@H](Cc2ccc(O)cc2)N(C)C(=O)[C@H](Cc2ccccc2)NC(=O)[C@H](CCCNC(=N)N)NC(=O)[C@H](CCCNC(=N)N)NC(=O)[C@H]([C@@H](C)CC)NC1=O [894_3197]
